Laboratory results published in patent publication US20240384268A1, “Oligonucleotides” (Hudson Institute of Medical Research, priority 2021, published 2024).
In the oligonucleotide strings, read from the 5' end, every base follows the letter of its sugar. An asterisk marks phosphorothioate; unmarked linkages are phosphodiester. Other units and linkages are bracketed, terminal groups are in braces. A string of capitals states the bases alone. d = 2'-deoxy (DNA); m = 2'-O-methyl

Molecular target: T1, human TLR7 (Homo sapiens, UniProt Q9NYK1)
T1 construct: HA; host or cells: 293XL-hTLR7-HA (HEK293)
T1 sequence (Q9NYK1 27-1049): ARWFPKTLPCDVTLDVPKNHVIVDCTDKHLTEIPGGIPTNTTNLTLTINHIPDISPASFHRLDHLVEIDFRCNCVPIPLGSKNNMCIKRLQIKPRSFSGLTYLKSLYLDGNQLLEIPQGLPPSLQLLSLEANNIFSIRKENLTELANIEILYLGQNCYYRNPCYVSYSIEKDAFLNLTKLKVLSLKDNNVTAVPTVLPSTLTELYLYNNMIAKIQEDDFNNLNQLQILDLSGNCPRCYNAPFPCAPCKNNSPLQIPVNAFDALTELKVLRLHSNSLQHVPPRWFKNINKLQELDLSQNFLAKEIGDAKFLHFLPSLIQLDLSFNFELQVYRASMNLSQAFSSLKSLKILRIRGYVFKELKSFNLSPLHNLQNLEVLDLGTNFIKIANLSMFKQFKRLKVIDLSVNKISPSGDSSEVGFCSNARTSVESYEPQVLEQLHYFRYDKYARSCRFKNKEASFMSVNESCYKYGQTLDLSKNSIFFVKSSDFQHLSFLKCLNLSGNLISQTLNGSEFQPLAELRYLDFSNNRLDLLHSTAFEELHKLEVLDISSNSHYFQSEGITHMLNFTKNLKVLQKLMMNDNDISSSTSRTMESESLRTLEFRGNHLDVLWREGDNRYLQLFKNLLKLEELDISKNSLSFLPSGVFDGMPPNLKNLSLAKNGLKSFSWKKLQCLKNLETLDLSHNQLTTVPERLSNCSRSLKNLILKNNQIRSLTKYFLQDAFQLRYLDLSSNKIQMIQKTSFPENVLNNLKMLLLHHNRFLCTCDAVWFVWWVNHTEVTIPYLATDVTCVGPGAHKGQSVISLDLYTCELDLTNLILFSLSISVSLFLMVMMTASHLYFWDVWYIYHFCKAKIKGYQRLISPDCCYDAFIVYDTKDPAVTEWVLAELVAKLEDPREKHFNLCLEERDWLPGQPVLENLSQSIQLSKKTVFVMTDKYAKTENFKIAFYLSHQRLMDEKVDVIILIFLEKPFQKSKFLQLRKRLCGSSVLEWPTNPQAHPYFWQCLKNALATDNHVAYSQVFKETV
Assay: HEK-TLR7 NF-κB-luciferase reporter, R848 stimulation
Format: cell-based
Details: for TLR7 100 nM: MOE-modified ASO at 100 nM; for TLR7 100 nM / TLR7 500 nM: averaged NF-κB-Luciferase relative to R848 condition; for TLR7 500 nM: MOE-modified ASO at 500 nM; for TLR7-100 nM: averaged NF-κB-Luciferase relative to R848: HEK-TLR7, 100 nM ASO, percentage of R848 without ASO (Alharbi et al., 2020)

For “AGTCGTAGTTGCTTCCTAAC (antisense; 2'-MOE modified, pattern not given here) [MB21D1-1181 MOE]”, the “TLR7 100 nM” value was 0.494 and the “TLR7 500 nM” value was 0.228.

With “ATGCCATCCACTTGATAGGC (antisense; 2'-MOE modified, pattern not given here) [EGFR-2874 MOE]” the “TLR7 100 nM” value was 0.668 and the “TLR7 500 nM” value was 0.390.

For “CGGAGGTCTTGGCTTCGTGG (antisense; 2'-MOE modified, pattern not given here) [MB21D1-525 MOE]”, the “TLR7 100 nM” value was 0.505 and the “TLR7 500 nM” value was 0.138.

“CGGCATCCACCACGTCGTCC (antisense; 2'-MOE modified, pattern not given here) [EGFR-3267 MOE]” was tested, and the “TLR7 100 nM” value was 0.485 and the “TLR7 500 nM” value was 0.202.

In the case of “GCCCATCCATGAGGTCCTGG (antisense; 2'-MOE modified, pattern not given here) [CTNN2B-2545 MOE]”, the “TLR7 100 nM” value is reported as 0.340 and the “TLR7 500 nM” value is reported as 0.124.

In the case of “GCTGACAAAGATTCACTGGT (antisense; 2'-MOE modified, pattern not given here) [HPRT-1353 MOE]”, the “TLR7 100 nM” value is reported as 0.375 and the “TLR7 500 nM” value is reported as 0.190.

“GGGTATCGAAAGAGTCTGGA (antisense; 2'-MOE modified, pattern not given here) [EGFR-3908 MOE]” was tested, and the “TLR7 100 nM” value was 0.350 and the “TLR7 500 nM” value was 0.079.

In the case of “GGTTTTGGCTGGGATCAAGT (antisense; 2'-MOE modified, pattern not given here) [CAMSAP1-4697 MOE]”, the “TLR7 100 nM” value is reported as 0.346 and the “TLR7 500 nM” value is reported as 0.191.

For “GTCCAAGATCAGCAGTCTCA (antisense; 2'-MOE modified, pattern not given here) [CTNN2B-2341 MOE]”, the “TLR7 100 nM” value was 0.298 and the “TLR7 500 nM” value was 0.120.

“TCCGGCCTCGGAAGCTCTCT (antisense; 2'-MOE modified, pattern not given here) [MB21D1-168 MOE]” was tested, and the “TLR7 100 nM” value was 0.440 and the “TLR7 500 nM” value was 0.166.

“TGGCAGGCTCAGTGATGTCT (antisense; 2'-MOE modified, pattern not given here) [CTNN2B-1642 MOE]” was tested, and the “TLR7 100 nM” value was 0.415 and the “TLR7 500 nM” value was 0.167.

For “TGGGCTGGAATCCGAGTTAT (antisense; 2'-MOE modified, pattern not given here) [EGFR-4705 MOE]”, the “TLR7 100 nM” value was 0.270 and the “TLR7 500 nM” value was 0.095.

In the case of “TGGGTTACGGCTCAGTATGG (antisense; 2'-MOE modified, pattern not given here) [CAMSAP1-4295 MOE]”, the “TLR7 100 nM” value is reported as 0.427 and the “TLR7 500 nM” value is reported as 0.167.

For “TTTGCACACTTCGTACCCAA (antisense; 2'-MOE modified, pattern not given here) [CAMSAP1-4916 MOE]”, the “TLR7 100 nM” value was 0.296 and the “TLR7 500 nM” value was 0.118.

For “mA*mA*mA*mA*mG*A*T*T*A*T*C*T*T*C*T*mU*mU*mU*mA*mA (AAAAGATTATCTTCTUUUAA; sugars from the 5' end m5 d10 m5, all phosphorothioate, methylation of C not given here) [[CDKN2B-AS1]2133]”, the “TLR7-100 nM: averaged NF-κB-Luciferase relative to R848” value was 47.41%.

For “mA*mA*mA*mA*mU*A*A*G*G*G*G*A*A*T*A*mG*mG*mG*mG*mA (mA*mA*mA*mA*mU*dA*dA*dG*dG*dG*dG*dA*dA*dT*dA*mG*mG*mG*mG*mA; antisense) [[CDKN2B-AS1]79]”, the “TLR7-100 nM: averaged NF-κB-Luciferase relative to R848” value was 68.45%.

With “mA*mA*mA*mG*mA*T*T*A*T*C*T*T*C*T*T*mU*mU*mA*mA*mU (mA*mA*mA*mG*mA*dT*dT*dA*dT*dC*dT*dT*dC*dT*dT*mU*mU*mA*mA*mU) [[CDKN2B-AS1]2132]” the “TLR7-100 nM: averaged NF-κB-Luciferase relative to R848” value was 49.28%.

In the case of “mA*mA*mA*mU*mG*T*C*C*T*G*G*C*C*C*T*mC*mA*mC*mU*mG (mA*mA*mA*mU*mG*dT*dC*dC*dT*dG*dG*dC*dC*dC*dT*mC*mA*mC*mU*mG) [[LINC-PINT]148.1]”, the “TLR7-100 nM: averaged NF-κB-Luciferase relative to R848” value is reported as 46.45%.

For “mA*mA*mG*mA*mU*T*A*T*C*T*T*C*T*T*T*mU*mA*mA*mU*mU (mA*mA*mG*mA*mU*dT*dA*dT*dC*dT*dT*dC*dT*dT*dT*mU*mA*mA*mU*mU) [[CDKN2B-AS1]2131]”, the “TLR7-100 nM: averaged NF-κB-Luciferase relative to R848” value was 42.09%.

“mA*mA*mG*mG*mU*G*G*C*C*A*C*A*G*G*C*mA*mA*mC*mG*mU (mA*mA*mG*mG*mU*dG*dG*dC*dC*dA*dC*dA*dG*dG*dC*mA*mA*mC*mG*mU; antisense) [[CDKN2B-AS1]2198]” was tested, and the “TLR7-100 nM: averaged NF-κB-Luciferase relative to R848” value was 57.85%.

In the case of “mA*mA*mU*mA*mU*C*T*G*C*T*G*C*C*C*A*mC*mC*mU*mU*mC (mA*mA*mU*mA*mU*dC*dT*dG*dC*dT*dG*dC*dC*dC*dA*mC*mC*mU*mU*mC; antisense) [[CDKN2B-AS1]832]”, the “TLR7-100 nM: averaged NF-κB-Luciferase relative to R848” value is reported as 43.66%.

In the case of “mA*mA*mU*mU*mU*A*A*A*G*C*A*T*G*A*A*mU*mA*mU*mU*mA (mA*mA*mU*mU*mU*dA*dA*dA*dG*dC*dA*dT*dG*dA*dA*mU*mA*mU*mU*mA) [[CDKN2B-AS1]645]”, the “TLR7-100 nM: averaged NF-κB-Luciferase relative to R848” value is reported as 46.75%.

In the case of “mA*mC*mC*mC*mU*T*C*T*C*T*C*T*G*G*T*mC*mC*mC*mA*mU (mA*mC*mC*mC*mU*dT*dC*dT*dC*dT*dC*dT*dG*dG*dT*mC*mC*mC*mA*mU; antisense) [[LINC-PINT]115]”, the “TLR7-100 nM: averaged NF-κB-Luciferase relative to R848” value is reported as 43.37%.

For “mA*mG*mA*mA*mA*G*A*A*G*C*A*A*A*G*A*mU*mU*mC*mA*mA (AGAAAGAAGCAAAGAUUCAA; sugars from the 5' end m5 d10 m5, all phosphorothioate, methylation of C not given here) [[CDKN2B-AS1]1519]”, the “TLR7-100 nM: averaged NF-κB-Luciferase relative to R848” value was 42.99%.

In the case of “mA*mG*mA*mU*mU*A*T*C*T*T*C*T*T*T*T*mA*mA*mU*mU*mU (AGAUUATCTTCTTTTAAUUU; sugars from the 5' end m5 d10 m5, all phosphorothioate, methylation of C not given here) [[CDKN2B-AS1]2130]”, the “TLR7-100 nM: averaged NF-κB-Luciferase relative to R848” value is reported as 37.10%.

“mA*mG*mC*mC*mG*A*A*C*A*G*A*A*G*G*A*mG*mC*mG*mU*mC (AGCCGAACAGAAGGAGCGUC; sugars from the 5' end m5 d10 m5, all phosphorothioate, methylation of C not given here) [[LINC-PINT]587 KL]” was tested, and the “TLR7-100 nM: averaged NF-κB-Luciferase relative to R848” value was 27.70%.

In the case of “mA*mG*mG*mA*mU*T*A*A*A*A*C*A*G*A*T*mU*mA*mA*mU*mA (mA*mG*mG*mA*mU*dT*dA*dA*dA*dA*dC*dA*dG*dA*dT*mU*mA*mA*mU*mA) [[CDKN2B-AS1] 1775]”, the “TLR7-100 nM: averaged NF-κB-Luciferase relative to R848” value is reported as 36.28%.

For “mA*mG*mG*mC*mC*T*C*C*A*G*T*G*T*C*T*mU*mC*mU*mC*mC (mA*mG*mG*mC*mC*dT*dC*dC*dA*dG*dT*dG*dT*dC*dT*mU*mC*mU*mC*mC; antisense) [[CDKN2B-AS1]2218]”, the “TLR7-100 nM: averaged NF-κB-Luciferase relative to R848” value was 44.73%.

With “mA*mU*mA*mU*mC*T*G*C*T*G*C*C*C*A*C*mC*mU*mU*mC*mU (AUAUCTGCTGCCCACCUUCU; antisense; sugars from the 5' end m5 d10 m5, all phosphorothioate, methylation of C not given here) [[CDKN2B-AS1]831]” the “TLR7-100 nM: averaged NF-κB-Luciferase relative to R848” value was 47.52%.

For “mA*mU*mG*mA*mC*A*T*T*T*C*G*T*G*G*C*mU*mC*mC*mU*mA (mA*mU*mG*mA*mC*dA*dT*dT*dT*dC*dG*dT*dG*dG*dC*mU*mC*mC*mU*mA) [[LINC-PINT]524.1]”, the “TLR7-100 nM: averaged NF-κB-Luciferase relative to R848” value was 32.53%.

“mC*mA*mA*mG*mC*C*C*C*A*G*C*G*T*T*C*mC*mU*mC*mC*mG (mC*mA*mA*mG*mC*dC*dC*dC*dA*dG*dC*dG*dT*dT*dC*mC*mU*mC*mC*mG; antisense) [[LINC-PINT]83.1]” was tested, and the “TLR7-100 nM: averaged NF-κB-Luciferase relative to R848” value was 45.20%.

In the case of “mC*mA*mC*mC*mC*T*T*C*T*C*T*C*T*G*G*mU*mC*mC*mC*mA (CACCCTTCTCTCTGGUCCCA; antisense; sugars from the 5' end m5 d10 m5, all phosphorothioate, methylation of C not given here) [[LINC-PINT]116]”, the “TLR7-100 nM: averaged NF-κB-Luciferase relative to R848” value is reported as 73.30%.

With “mC*mA*mC*mU*mG*T*A*T*T*T*T*A*T*T*A*mC*mA*mG*mA*mA (mC*mA*mC*mU*mG*dT*dA*dT*dT*dT*dT*dA*dT*dT*dA*mC*mA*mG*mA*mA; antisense) [[LINC-PINT]2990]” the “TLR7-100 nM: averaged NF-κB-Luciferase relative to R848” value was 58.13%.

With “mC*mA*mG*mG*mC*C*T*C*C*A*G*T*G*T*C*mU*mU*mC*mU*mC (mC*mA*mG*mG*mC*dC*dT*dC*dC*dA*dG*dT*dG*dT*dC*mU*mU*mC*mU*mC; antisense) [[CDKN2B-AS1]2219]” the “TLR7-100 nM: averaged NF-κB-Luciferase relative to R848” value was 54.11%.
